Data taken from patent US9066965B1, “Purified limonin glucoside for prevention and treatment of chronic diseases” (The United States of America, as represented by the …, priority 2012, dated 2015).

Legend:
[1] = Serum lipids and lipoproteins; assay type: in vivo, human
Description: Serum lipids were part of the CMP performed at University of California Medical Center (UCDMC) by using the Beckman Coulter DxC800 instrument. Lipoproteins A1 and B were ascertained in EDTA plasma using a Cobas Integra 400 Plus instrument with Roche reagents (Roche Diagnostics Corp., Indianapolis, Ind.). Lipoproteins C2, C3 and E were quantified in serum using a Cobas Integra 400 Plus instrument with Kamiya reagents (Kamiya Biomedical Co., Seattle, Wash.).
(§1) Results are presented as means±SEM.

[2] = Rules Based Medicine human multi-analyte panel (MAP 1.6), plasma; assay type: in vivo; set-up: Epidermal growth factor: unit not given here
Experimental: Plasma samples prepared from blood collected in EDTA-containing tubes were stored at −80° C. until tested. The samples were thawed at room temperature, vortexed, spun at 13,000×g for 5 minutes for clarification and 100 uL aliquots were removed for MAP analysis into a master microtiter plate. Using automated pipetting, an aliquot of each sample was introduced into one of the capture microsphere multiplexes of the Human MAP 1.6. This MAP comprised of 89 antigens that included markers for oxidative stress, inflammation, immune status, T2DM, CVD, blood clotting, cancer, liver and kidney functions. All plasma samples were tested in duplicate. The mixture of sample and capture microspheres were thoroughly mixed and incubated at room temperature for 1 hour. Multiplexed cocktails of biotinylated, reporter antibodies for each multiplex were then added robotically and after thorough mixing, were incubated for an additional hour at room temperature. Multiplexes were developed using an excess of streptavidin-phycoerythrin solution which was thoroughly mixed into each multiplex and incubated for 1 hour at room temperature. The volume of each multiplexed reaction was reduced by vacuum filtration and the volume increased by dilution into matrix buffer for analysis. Analysis was performed in a Luminex 100 instrument and the resulting data stream was interpreted using proprietary data analysis software developed at Rules-Based Medicine. For each multiplex, both calibrators and controls were included on each microtiter plate. 8-point calibrators were run in the first and last column of each plate and 3-level controls were included in duplicate. Testing results were determined first for the high, medium and low controls for each multiplex to ensure proper assay performance. Unknown values for each of the analytes localized in a specific multiplex were determined using 4 and 5 parameter, weighted and non-weighted curve fitting algorithms included in the data analysis package. The intra-sample coefficient of variance (CV) for all antigens with concentrations above the lowest detectable dose (LDD) was less than 20%, and was less than 10% for more than 50% of the antigens tested.
as §1

[3] = Adverse effects and tolerability of the LG drink; assay type: in vivo, human
Description: A total of 11 adverse events were reported by 6 subjects for the entire duration of the study (data not shown). Some of these events such as volunteer hurting their back or hand were definitely unrelated to the drinks, while others like a weird taste, dry throat seem related to the drinks, still others such as mild cold or frequent urinating, or rash on chest may or may not be related to the drinks. […] Since the placebo was also the carrier of LG, all adverse events may be due to the placebo drinks.

[4] = End LG, 500 mg/d, 56 days, n = 10, mean ± SEM
[5] = serum, End LG, 500 mg/d, 56 days, n = 10, mean ± SEM

## CC1(C)O[C@H]2CC(=O)OC[C@]23[C@H]2CC[C@@](C)([C@@H](O[C@@H]4O[C@H](CO)[C@@H](O)[C@H](O)[C@H]4O)c4ccoc4)[C@@]4(O[C@@H]4C(=O)O)[C@]2(C)C(=O)C[C@@H]13 [LG, limonin glucoside]
[1]; [4]
  Lipoprotein A1: 142.91 ± 4.18 mg/dL
  Lipoprotein B: 114.5 ± 6.45 mg/dL
  Lipoprotein C2: 6.21 ± 0.50 mg/dL
  Lipoprotein C3: 13.28 ± 1.05 mg/dL
  Lipoprotein E: 4.91 ± 0.32 mg/dL
[1]; Table 4
  change in plasma concentrations of Apo B: did not find any change
[1]; [5]
  Cholesterol: 231.70 ± 8.83 mg/dL
  HDL-C: 44.20 ± 2.59 mg/dL
  LDL-C (Calc): 159.10 ± 7.37 mg/dL
  Non-HDL-C: 187.50 ± 10.63 mg/dL
  Total-C:HDL-C: 5.47 ± 0.47
  Triglycerides: 142.60 ± 23.64 mg/dL
[1]; vs end of placebo treatment
  effect on serum total-, HDL-, LDL-, non-HDL-cholesterol, triglycerides, lipoproteins A1, B, C2, C3, E: did not alter
[2]; [4]
  Adiponectin: 3.19 ± 0.70 µg/mL
  Alpha-1 Antitrypsin: 2.19 ± 0.10 mg/mL
  Alpha-2 Macroglobulin: 0.79 ± 0.06 mg/mL
  Alpha-Fetoprotein: 2.35 ± 0.19 ng/mL
  Apolipoprotein A1: 0.30 ± 0.01 mg/mL
  Apolipoprotein CIII: 111.60 ± 12.92 µg/mL
  Apolipoprotein H: 257.10 ± 19.26 µg/mL
  Apolipoprotein a: 110.78 ± 57.76 µg/mL
  Beta-2 Microglobulin: 1.46 ± 0.14 µg/mL
  Brain-Derived Neurotrophic Factor: 2.88 ± 0.71 ng/mL
  C Reactive Protein: 1.77 ± 0.26 µg/mL
  CD 40: 0.76 ± 0.06 ng/mL
  CD 40 Ligand: 0.74 ± 0.27 ng/mL
  Carcinoembryonic Antigen: 1.49 ± 0.36 ng/mL
  Creatine Kinase-MB: 0.30 ± 0.07 ng/mL
  EN-RAGE: 3.45 ± 0.99 ng/mL
  Eotaxin-1: 71.37 ± 14.78 pg/mL
  Epidermal growth factor: 251.67 ± 48.22
  Epithelial derived-neutrophil-activating protein: 1.68 ± 0.41 ng/mL
  Factor VII: 548.70 ± 64.71 ng/mL
  Ferritin: 137.76 ± 59.13 ng/mL
  Fibrinogen: 4.81 ± 0.29 mg/mL
  Fibroblast growth factor-basic: 102.81 ± 19.33 pg/mL
  Glutathione S-Transferase: 0.56 ± 0.02 ng/mL
  Granulocyte colony-stimulating factor: 5.63 ± 1.12 pg/mL
  Growth hormone: 1.71 ± 0.79 ng/mL
  Haptoglobin: 1.26 ± 0.18 mg/mL
  ICAM-1: 105.01 ± 13.81 ng/mL
  Immunoglobulin A: 2.14 ± 0.54 mg/mL
  Immunoglobulin E: 28.89 ± 6.20 ng/mL
  Immunoglobulin M: 1.85 ± 0.23 mg/mL
  Insulin: 2.94 ± 0.53 μIU/mL
  Interleukin-1 beta: 0.50 ± 0.14 pg/mL
  Interleukin-1 receptor antagonist: 105.05 ± 14.03 pg/mL
  Interleukin-3: 0.05 ± 0.01 ng/mL
  Interleukin-4: 62.87 ± 8.35 pg/mL
  Interleukin-5: 3.80 ± 0.77 pg/mL
  Interleukin-7: 51.27 ± 7.39 pg/mL
  Interleukin-8: 11.26 ± 1.25 pg/mL
  Interleukin-10: 10.92 ± 2.07 pg/mL
  Interleukin-12p 70: 59.91 ± 2.15 pg/mL
  Interleukin-13: 59.52 ± 6.77 pg/mL
  Interleukin-15: 0.45 ± 0.09 ng/mL
  Interleukin-16: 404.90 ± 32.28 pg/mL
  Interleukin-18: 237.45 ± 24.67 pg/mL
  Leptin: 15.00 ± 4.12 ng/mL
  Macrophage inflammatory protein-1α: 106.76 ± 12.39 pg/mL
  Macrophage inflammatory protein-1β: 183.58 ± 36.53 pg/mL
  Matrix metalloproteinase-2: 2.20 ± 156.40 µg/mL
  Monocyte chemotactic protein-1: 164.84 ± 16.25 pg/mL
  Monocyte derived chemokine: 426.10 ± 40.45 pg/mL
  Myeloperoxidase: 147.83 ± 22.42 ng/mL
  Myoglobin: 14.94 ± 2.39 ng/mL
  Plasminogen activator inhibitor-1: 69.86 ± 15.86 ng/mL
  Pregnancy associated plasma protein A: 0.02 ± 0.00 mIU/mL
  Prostatic Acid Phosphatase: 0.17 ± 0.02 ng/mL
  Serum amyloid P-component: 16.61 ± 0.94 µg/mL
  Serum glutamic oxaloacetic transaminase: 9.67 ± 1.64 µg/mL
  Sex hormone binding globulin: 33.29 ± 5.40 nmol/L
  Stem Cell Factor: 351.05 ± 50.76 pg/mL
  T-cell specific protein, RANTES: 16.48 ± 3.62 ng/mL
  Thrombopoietin: 1.40 ± 0.22 ng/mL
  Thyroid Stimulating Hormone: 1.72 ± 0.30 μIU/mL
  Thyroxine Binding Globulin: 46.51 ± 2.84 µg/mL
  Tissue factor: 0.45 ± 0.03 ng/mL
  Tissue inhibitor of metalloproteinases-1: 87.97 ± 8.38 ng/mL
  Tumor necrosis factor receptor-like 2: 3.83 ± 0.25 ng/mL
  Tumor necrosis factor α: 3.58 ± 0.68 pg/mL
  Vascular cell adhesion molecule-1: 508.80 ± 49.79 ng/mL
  Vascular endothelial growth factor: 883.55 ± 268.15 pg/mL
  Von Willebrand Factor: 30.03 ± 3.09 µg/mL
[2]; not significant
  tumor necrosis factor α (p=0.085), matrix metalloproteinase-9 (p=0.118), serum amyloid P (p=0.188) with supplementation: trends for decrease
[2]; second line so named (r60), End LG, 500 mg/d, 56 days, n = 10, mean ± SEM
  Matrix metalloproteinase-2: 0.07601 ± 0.02246 µg/mL
[3]; 500 mg/d, 56 days
  effect on parameters of CBC, CMP and MAP 1.6: did not adversely affect
  serious adverse effects: did not have any serious adverse effects
  tolerability: well tolerated
[3]; out of the 11 adverse events of the study, 7 on placebo drinks
  adverse events reported while taking the drink: 4
